Data from ChEMBL document CHEMBL3885861, “Open TG-GATES”.

Species: Rattus norvegicus
Assay: Open TG-GATES - Regimen: Single
Format: toxicity, organism-based, Sprague-Dawley
Set-up: regimen Single, gender Male, age 6 weeks
Details: in vivo, po, 10 mg/kg, route gavage, dose level Middle; for APTT / Bas / Eos / Fbg / Hb / Ht / Lym / MCH / MCHC / MCV / Mono / Neu / PT / Plat / RBC / Ret / WBC: tissue Blood; for KIDNEY_L / KIDNEY_R / KIDNEY_TOTAL: tissue Kidney; for LIVER: tissue Liver; for A/G / ALP / ALT / AST / BUN / CRE / Ca / Cl / DBIL / GLC / IP / K / LDH / Na / PL / RALB / TBIL / TC / TG / TP / gamma-GTP: tissue Plasma

## C=CCO [ALLYL ALCOHOL]
3 h
  TERMINAL_BW: 220.3 g
  APTT: 20.3 s
  Bas: 0%
  Eos: 1%
  Fbg: 217.8 mg/dL
  Hb: 13.7 g/dL
  Ht: 39.5%
  Lym: 79.4%
  MCH: 21.3 pg
  MCHC: 34.9%
  MCV: 61 fL
  Mono: 2.8%
  Neu: 16.8%
  PT: 12.5 s
  Plat: 140.4 x10_4/uL
  RBC: 648.2 x10_4/ul
  Ret: 6.3%
  WBC: 94.5 x10_2/uL
  KIDNEY_L: 1 g
  KIDNEY_R: 1 g
  KIDNEY_TOTAL: 2 g
  LIVER: 9.9 g
  A/G: 1.5
  ALP: 1147.4 IU/L
  ALT: 37.6 IU/L
  AST: 69.6 IU/L
  BUN: 10.2 mg/dL
  CRE: 0.4 mg/dL
  Ca: 10.6 mg/dL
  Cl: 100.2 meq/L
  DBIL: 0.3 mg/dL
  GLC: 197.8 mg/dL
  IP: 8.6 mg/dL
  K: 3.7 meq/L
  LDH: 209.2 IU/L
  Na: 139.4 meq/L
  PL: 170.4 mg/dL
  RALB: 3.4 g/dL
  TBIL: 0.4 mg/dL
  TC: 77 mg/dL
  TG: 204.8 mg/dL
  TP: 5.6 g/dL
  gamma-GTP: 1 IU/L
6 h
  TERMINAL_BW: 220.1 g
  APTT: 19.1 s
  Bas: 0%
  Eos: 1%
  Fbg: 226.8 mg/dL
  Hb: 13.2 g/dL
  Ht: 38.1%
  Lym: 76%
  MCH: 22 pg
  MCHC: 34.5%
  MCV: 63.7 fL
  Mono: 3.2%
  Neu: 19.2%
  PT: 12.1 s
  Plat: 132 x10_4/uL
  RBC: 598 x10_4/ul
  Ret: 7.1%
  WBC: 99.4 x10_2/uL
  KIDNEY_L: 1 g
  KIDNEY_R: 1 g
  KIDNEY_TOTAL: 1.9 g
  LIVER: 9.8 g
  A/G: 1.4
  ALP: 1136.8 IU/L
  ALT: 35 IU/L
  AST: 74 IU/L
  BUN: 8 mg/dL
  CRE: 0.4 mg/dL
  Ca: 10.7 mg/dL
  Cl: 102.4 meq/L
  DBIL: 0.2 mg/dL
  GLC: 200.2 mg/dL
  IP: 9.1 mg/dL
  K: 3.8 meq/L
  LDH: 221.4 IU/L
  Na: 141.2 meq/L
  PL: 164.2 mg/dL
  RALB: 3.2 g/dL
  TBIL: 0.2 mg/dL
  TC: 77.8 mg/dL
  TG: 114.4 mg/dL
  TP: 5.5 g/dL
  gamma-GTP: 1.2 IU/L
9 h
  TERMINAL_BW: 215.5 g
  APTT: 18 s
  Bas: 0%
  Eos: 1%
  Fbg: 217 mg/dL
  Hb: 13.3 g/dL
  Ht: 38.6%
  Lym: 80.4%
  MCH: 21.5 pg
  MCHC: 34.4%
  MCV: 62.6 fL
  Mono: 2.2%
  Neu: 16.2%
  PT: 12.3 s
  Plat: 125.1 x10_4/uL
  RBC: 617.6 x10_4/ul
  Ret: 6.5%
  WBC: 74.3 x10_2/uL
  KIDNEY_L: 0.9 g
  KIDNEY_R: 0.9 g
  KIDNEY_TOTAL: 1.9 g
  LIVER: 8.9 g
  A/G: 1.5
  ALP: 1058 IU/L
  ALT: 29 IU/L
  AST: 62 IU/L
  BUN: 9.2 mg/dL
  CRE: 0.3 mg/dL
  Ca: 10.5 mg/dL
  Cl: 101.8 meq/L
  DBIL: 0.07 mg/dL
  GLC: 203.8 mg/dL
  IP: 10.3 mg/dL
  K: 3.8 meq/L
  LDH: 163.4 IU/L
  Na: 140 meq/L
  PL: 132.6 mg/dL
  RALB: 3.3 g/dL
  TBIL: 0.1 mg/dL
  TC: 67 mg/dL
  TG: 60.6 mg/dL
  TP: 5.5 g/dL
  gamma-GTP: 0.8 IU/L
24 h
  TERMINAL_BW: 231.2 g
  APTT: 17.9 s
  Bas: 0%
  Eos: 1%
  Fbg: 232.2 mg/dL
  Hb: 13.5 g/dL
  Ht: 39.7%
  Lym: 79.2%
  MCH: 20.8 pg
  MCHC: 34%
  MCV: 61 fL
  Mono: 2.8%
  Neu: 16.6%
  PT: 11.9 s
  Plat: 127.4 x10_4/uL
  RBC: 650.8 x10_4/ul
  Ret: 6%
  WBC: 93.9 x10_2/uL
  KIDNEY_L: 1 g
  KIDNEY_R: 1 g
  KIDNEY_TOTAL: 1.9 g
  LIVER: 11.1 g
  A/G: 1.3
  ALP: 1042.2 IU/L
  ALT: 38.2 IU/L
  AST: 65 IU/L
  BUN: 15 mg/dL
  CRE: 0.4 mg/dL
  Ca: 10.8 mg/dL
  Cl: 102.4 meq/L
  DBIL: 0.08 mg/dL
  GLC: 203.6 mg/dL
  IP: 7.2 mg/dL
  K: 3.8 meq/L
  LDH: 200.4 IU/L
  Na: 140.2 meq/L
  PL: 152.6 mg/dL
  RALB: 3.1 g/dL
  TBIL: 0.1 mg/dL
  TC: 79.4 mg/dL
  TG: 99.4 mg/dL
  TP: 5.5 g/dL
  gamma-GTP: 1 IU/L
